We go through 1 compound from paper PMC3628991, “Synthesis and evaluation of cell-permeable biotinylated PU-H71 derivatives as tumor Hsp90 probes” (Beilstein Journal of Organic Chemistry, 2013).

The structures appear in SMILES notation.

In one test the test system is K562 cells. The test is described as follows: Growth inhibition assay (Alamar Blue). Format: cell-based. The note with it: Homo sapiens, K562, 72 h, read-out: IC50 Growth inhibition. The source says: Having shown that each of the prepared biotinylated molecules retained good affinity for Hsp90, we next evaluated these compounds in two functional read-outs that together measure that the probe has entered a live cancer cell and once inside the cell, has bound to a substantial fraction of oncogenic Hsp90 molecules. Specifically, K562 is a human leukemia cell line dependent on Hsp90 for survival. Thus, in such cells, occupancy of Hsp90’s regulatory pocket by small molecules results in inhibition of its cancer-sheltering properties, leading to cell-growth inhibition associated with degradation of Hsp90-chaperoned onco-proteins. These, such as is the case for Raf-1 in K562 cells, become ubiquitinated and targeted for proteasomal degradation leading to a decrease in their steady-state levels (Figure 2a, Raf-1).
Growth inhibition assay. The effect of compounds on cell growth was evaluated with the Alamar Blue assay. In summary, K562 cells were plated at 20,000 cells/well on Costar 96-well plates. Treatment with the probes added at the indicated concentrations in triplicate wells was performed on the subsequent day and lasted for 72 h. The Alamar Blue reagent resazurin (440 μM stock) was added at the end of the treatment to result in a final concentration of 50 μM. Plates were read 6 h later by using the Analyst GT instrument (Fluorescence intensity mode, excitation 530 nm, emission 580 nm, with 560 nm dichroic mirror). Results were analyzed in SoftMax Pro. The percentage of cell growth inhibition was calculated by comparing fluorescence readings obtained from treated versus control cells, accounting for the initial cell population (time zero). The IC50 was calculated as the drug concentration that inhibits cell growth by 50%.
On the technique in general: Alamar Blue is a resazurin reagent that responds to reducing activity.

The target of another test is Grp94 (Homo sapiens, UniProt P14625). The note with it: ref Chiosis G, personal communication; cited from earlier work.
The subject of test [1] is tumor cell Hsp90 complexes (SKBr3 human breast cancer lysate). The test is described as follows: Hsp90 fluorescence polarization competition assay (GM-cy3B displacement) in SKBr3 cancer-cell lysate. In kind it is binding. The conditions noted are these: read-out: Affinity for Hsp90 (FP). The source says: The fraction of tracer bound to Hsp90 was correlated to the mP value and plotted against values of competitor concentrations. The inhibitor concentration at which 50% of bound GM was displaced was obtained by fitting the data.

Grp94, sequence (P14625 22-803, species assumed): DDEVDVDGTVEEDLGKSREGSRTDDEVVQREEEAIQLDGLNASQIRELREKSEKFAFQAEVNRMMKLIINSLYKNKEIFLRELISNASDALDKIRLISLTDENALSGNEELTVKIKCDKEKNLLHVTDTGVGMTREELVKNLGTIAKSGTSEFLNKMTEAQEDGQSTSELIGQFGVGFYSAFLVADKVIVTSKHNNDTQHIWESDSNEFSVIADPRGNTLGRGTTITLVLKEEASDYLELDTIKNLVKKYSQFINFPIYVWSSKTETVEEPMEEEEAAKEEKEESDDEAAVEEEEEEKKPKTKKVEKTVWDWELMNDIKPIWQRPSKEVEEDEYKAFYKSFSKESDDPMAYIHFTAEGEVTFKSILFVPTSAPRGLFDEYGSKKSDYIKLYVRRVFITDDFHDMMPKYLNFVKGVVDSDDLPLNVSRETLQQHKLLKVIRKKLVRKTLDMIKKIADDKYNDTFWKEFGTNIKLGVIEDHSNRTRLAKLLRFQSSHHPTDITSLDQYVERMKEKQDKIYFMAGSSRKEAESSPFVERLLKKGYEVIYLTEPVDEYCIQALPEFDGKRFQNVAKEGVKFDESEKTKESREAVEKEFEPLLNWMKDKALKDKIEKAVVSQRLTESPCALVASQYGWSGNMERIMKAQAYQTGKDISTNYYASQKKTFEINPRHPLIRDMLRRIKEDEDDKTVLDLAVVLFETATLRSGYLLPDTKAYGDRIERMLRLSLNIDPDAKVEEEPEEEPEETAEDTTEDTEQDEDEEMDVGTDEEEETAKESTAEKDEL

Consider `CC(C)NCCCn1c(Sc2cc3c(cc2I)OCO3)nc2c(N)ncnc21` [1a, PU-H71], for which, in the test on K562 cells, the half-maximal inhibitory concentration (IC50) was found to be 0.08 µM. Moreover, the “Binding to cytosolic and ER Hsp90 paralogues” value on Grp94 is “binds equally well to the cytosolic and the ER paralogues”. Moreover, the EC50 in test [1] stood at 0.0245 µM.

One may read the IC50 as the concentration that gives 50% inhibition.
